Test [1] concerns the target PRMT5-MTA (Homo sapiens, UniProt O14744). The test can be described thus: Enzymatic inhibitory activity against PRMT5-MTA (AlphaScreen). It counts as biochemical. The settings on record: read-out: IC50. Summed up: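 PRMT5/[…] (1 nM) was preincubated for 30 min at room temperature with 1 µM […] and 2.5 µM SAM, then exposed to compound (10-point, 3-fold from 1000 nM) for 15 min at 23 °C. Histone H4 substrate (5 nM) was added and reacted for 45 min at 23 °C. Symmetric dimethyl-R3 H4 was detected by AlphaScreen and IC50 calculated.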

Test [2] deals with HCT116 MTAP KO cells. The test can be described thus: Inhibitory activity against cell proliferation (CellTiter Glo, 6 days), HCT116 MTAP KO. The test is classed as cell-based. Conditions: for IC50: Homo sapiens, HCT-116, 144 h, HCT116 MTAP KO cells, 6 days, CellTiter Glo, read-out: HCT116 MTAP KO IC50; for Selectivity HCT 116-WT/ HCT116 MTAP KO: ratio of IC50 HCT116-WT / HCT116 MTAP KO. Summed up:
(§1)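 HCT116 wild-type or MTAP-knockout cells (250/well, McCoy's 5A + 10% FBS) treated after overnight culture with 8-point 4-fold dilutions from 10000 nM for 6 days at 37 °C. Viability read by CellTiter Glo luminescence on day 7; IC50 calculated against DMSO controls.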
In general terms: ATP-based viability assays read luminescence as a measure of living cells.

For test [3], the system named is HCT116-WT cells. The test can be described thus: Inhibitory activity against cell proliferation (CellTiter Glo, 6 days), HCT116-WT. The test is classed as cell-based. The settings on record: 144 h, HCT116-WT cells, 6 days, CellTiter Glo; read-out: HCT116-WT IC50. An outline of the steps: as §1

SMILES strings stand for the structures. Where only a bound is given, the exact number is not on record here.

Chain of PRMT5-MTA (O14744 whole entry): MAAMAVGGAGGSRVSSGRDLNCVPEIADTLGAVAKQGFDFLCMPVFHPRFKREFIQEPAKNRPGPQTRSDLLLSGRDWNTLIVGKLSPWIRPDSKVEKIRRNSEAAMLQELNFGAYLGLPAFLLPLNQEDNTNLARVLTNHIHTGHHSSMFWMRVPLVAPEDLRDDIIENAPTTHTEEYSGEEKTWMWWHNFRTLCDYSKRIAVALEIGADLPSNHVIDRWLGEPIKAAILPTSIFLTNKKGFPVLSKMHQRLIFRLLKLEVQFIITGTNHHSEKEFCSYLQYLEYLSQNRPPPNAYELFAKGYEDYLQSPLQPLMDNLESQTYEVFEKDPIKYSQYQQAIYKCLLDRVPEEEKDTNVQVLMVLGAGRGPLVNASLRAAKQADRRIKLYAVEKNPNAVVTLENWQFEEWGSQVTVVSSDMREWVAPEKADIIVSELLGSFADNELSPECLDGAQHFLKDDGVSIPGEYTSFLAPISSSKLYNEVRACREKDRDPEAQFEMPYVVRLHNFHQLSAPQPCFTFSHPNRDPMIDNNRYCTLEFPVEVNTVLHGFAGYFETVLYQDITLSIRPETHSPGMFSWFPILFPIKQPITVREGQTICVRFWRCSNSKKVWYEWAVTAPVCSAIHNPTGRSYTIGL
Chain of PRMT5-MTA (Q9BQA1 whole entry partner): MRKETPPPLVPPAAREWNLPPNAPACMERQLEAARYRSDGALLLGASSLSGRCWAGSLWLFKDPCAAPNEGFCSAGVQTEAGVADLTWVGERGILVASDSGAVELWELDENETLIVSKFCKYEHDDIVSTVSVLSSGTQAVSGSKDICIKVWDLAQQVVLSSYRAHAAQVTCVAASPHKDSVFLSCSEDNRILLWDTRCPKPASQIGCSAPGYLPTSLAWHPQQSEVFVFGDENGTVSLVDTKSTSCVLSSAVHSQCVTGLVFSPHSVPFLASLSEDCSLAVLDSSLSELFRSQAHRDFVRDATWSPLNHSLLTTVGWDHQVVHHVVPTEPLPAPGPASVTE

With `COC1CN(C(=O)c2cc3c(cc2C)nc(N)c2cnn(C)c23)N(c2cc(F)ccc2F)C1` (centres unmarked) [Example 445, (4-amino-1,7-dimethyl-1H-pyrazolo[4,3-c]quinolin-8-yl)(2-(2,5-difluorophenyl)-4-methoxypyrazolidin-1-yl)methanone], the IC50 – broadly, the concentration at which inhibition is half-maximal – in test [1] turned out to be 0.0064 µM; in test [2], 0.022 µM; in test [3], 0.548 µM. Moreover, in test [2], the “Selectivity HCT 116-WT/ HCT116 MTAP KO” value turned out to be 24.91.

For the compound `CC1CN(C(=O)c2cc3c(cc2Cl)nc(N)c2cnn(C)c23)N(c2cccc(F)c2F)C1` (centres unmarked) [Example 402, (4-amino-7-chloro-1-methyl-1H-pyrazolo [4,3-c]quinolin-8-yl)(2-(2,3-difluorophenyl)-4-methylpyrazolidin-1-yl)methanone], the half-inhibitory concentration (IC50) in test [1] was 0.0064 µM; in test [2] it was 0.024 µM; in test [3], 0.569 µM. In addition, in test [2], the “Selectivity HCT 116-WT/ HCT116 MTAP KO” value is 23.71.

On to `Cc1ncsc1-c1ccc(CN(C(=O)c2ccc3nc(N)c(Br)cc3c2)N(c2ncccn2)C2CC2)nc1` [Example 171, 2-amino-3-bromo-N'-cyclopropyl-N-((5-(4-methylthiazol-5-yl)pyridin-2-yl)methyl)-N'-(pyrimidin-2-yl)quinoline-6-carbohydrazide], for which the IC50 in test [1] was 0.0052 µM; in test [2], 0.043 µM; in test [3] it was 0.622 µM. Besides, in test [2], the “Selectivity HCT 116-WT/ HCT116 MTAP KO” value was 14.47.

With `Cc1cc2cc(C(=O)N(Cc3ccc(C(F)(F)F)cn3)N(C)c3nccc4nc(C)c(C)nc34)ccc2nc1N` [Example 272, 2-amino-N'-(2,3-dimethylpyrido[3,4-b]pyrazin-5-yl)-N',3-dimethyl-N-((5-(trifluoromethyl)pyridin-2-yl)methyl)quinoline-6-carbohydrazide], the half-inhibitory concentration (IC50) in test [1] amounted to 0.0026 µM; in test [2], 0.242 µM; in test [3] it was 3.18 µM. Further, in test [2], the “Selectivity HCT 116-WT/ HCT116 MTAP KO” value turned out to be 13.13.

For the compound `Cc1cc2nc(N)c3cnn(C)c3c2cc1C(=O)N1CC(C)CN1c1cnccn1` (centres unmarked) [Example 397, (4-amino-1,7-dimethyl-1H-pyrazolo[4,3-c]quinolin-8-yl)(4-methyl-2-(pyrazin-2-yl)pyrazolidin-1-yl)methanone], the values for the IC50 in test [1], in test [2] and in test [3] were 0.015 µM, 0.197 µM and 6.79 µM, respectively. In addition, in test [2], the “Selectivity HCT 116-WT/ HCT116 MTAP KO” value is given as 34.46.

With `Cc1cc2cc(C(=O)N(Cc3ccc(C4CC4)cn3)N(C)c3ncccc3F)ccc2nc1N` [Example 164, 2-amino-N-((5-cyclopropylpyridin-2-yl)methyl)-N'-(3-fluoropyridin-2-yl)-N',3-di methylquinoline-6-carbohydrazide], the half-inhibitory concentration (IC50) amounted to 0.0009 µM in test [1], 0.02 µM in test [2] and 0.443 µM in test [3]. In addition, the “Selectivity HCT 116-WT/ HCT116 MTAP KO” value in test [2] worked out at 22.15.

With `Cc1cc2nc(N)c3cnn(C)c3c2cc1C(=O)N1CCC(C)N1c1ncc(Br)cc1F` (centres unmarked) [Example 390, (4-amino-1,7-dimethyl-1H-pyrazolo[4,3-c]quinolin-8-yl)(2-(5-bromo-3-fluoropyridin-2-yl)-3-methylpyrazolidin-1-yl)metha none], the figures for the IC50 in test [1], in test [2] and in test [3] were 0.0086 µM, 0.233 µM and greater than 10 µM, respectively. Also, in test [2], the “Selectivity HCT 116-WT/ HCT116 MTAP KO” value was greater than 42.92.

Take `Cc1cc2cc(C(=O)N(Cc3ccc(C(F)(F)F)cn3)N(C)c3ncc(Br)cn3)ccc2nc1N` [Example 50, 2-amino-N'-(5-bromopyrimidin-2-yl)-N', 3-dimethyl-N-((5-(trifluoromethyl)pyridin-2-yl)methyl)quinoline-6-carbohydrazide]: the IC50 in test [1] stood at 0.0021 µM; in test [2], 0.219 µM; in test [3] it was 3.79 µM. For the same compound, the “Selectivity HCT 116-WT/ HCT116 MTAP KO” value in test [2] came out at 17.33.

Take `Cc1cc2cc(C(=O)N(Cc3ccc(C(F)(F)F)cn3)Nc3ncccc3F)ccc2nc1N` [Example 56, 2-amino-N'-(3-fluoropyridin-2-yl)-3-met hyl-N-((5-(trifluoromethyl)pyridin-2-yl)methyl)quinoline-6-carbohydrazide]: the IC50 in test [1] stood at 0.0035 µM; in test [2], 0.139 µM; in test [3] it was 3.33 µM. Also, the “Selectivity HCT 116-WT/ HCT116 MTAP KO” value in test [2] was 23.99.

Turning to `Cc1cc2cc(C(=O)N(Cc3ccc(C(F)(F)F)cn3)N(C)c3ncc(C(F)(F)F)cc3F)ccc2nc1N` [Example 102, 2-amino-N'-(3-fluoro-5-(trifluoromethyl)pyridin-2-yl)-N',3-dimethyl-N-((5-(trifluoromethyl)pyridin-2-yl)methyl)quinoline-6-carbohydrazide], the IC50 in test [1] was determined as 0.0017 µM; in test [2] it was 0.348 µM; in test [3] it was 3.55 µM. The “Selectivity HCT 116-WT/ HCT116 MTAP KO” value in test [2] was 10.19.

Consider `Cc1cc2cc(C(=O)N(Cc3ccc(Br)cc3F)N(C)c3ncccn3)ccc2nc1N` [Example 84, 2-amino-N-(4-bromo-2-fluorobenzyl)-N', 3-dimethyl-N'-(pyrimidin-2-yl)quinoline-6-carbohydrazide], for which the 50% inhibitory concentration (IC50) in test [1] came to 0.0034 µM; in test [2], 0.058 µM; in test [3] it was 1.63 µM. The “Selectivity HCT 116-WT/ HCT116 MTAP KO” value in test [2] is reported as 28.17.

With `CN(c1ncccn1)N(Cc1ccc(C(F)(F)F)cn1)C(=O)c1ccc2nc(N)c3cnccc3c2c1` [Example 308, 5-amino-N'-methyl-N'-(pyrimidin-2-yl)-N-((5-(trifluoromethyl)pyridin-2-yl)methyl)ben zo[c][2,7]naphthyridine-9-carbohydrazide], the IC50 was 0.0011 µM in test [1], 0.011 µM in test [2] and 0.216 µM in test [3]. For the same compound, in test [2], the “Selectivity HCT 116-WT/ HCT116 MTAP KO” value is listed as 19.64.

For the compound `Cc1cc2cc(C(=O)N(Cc3ccc(-c4cccnc4)cn3)N(C)c3ncccn3)ccc2nc1N` [Example 172, N-([3,3'-bipyridine]-6-ylmethyl)-2-amino -N',3-dimethyl-N'-(pyrimidin-2-yl)quinoline-6-carbohydrazide], the half-inhibitory concentration (IC50) in test [1] was determined as 0.0021 µM; in test [2] it was 0.024 µM; in test [3], 1.75 µM. In addition, the “Selectivity HCT 116-WT/ HCT116 MTAP KO” value in test [2] worked out at 73.08.

With `Cc1cc2nc(N)c3cnn(C)c3c2cc1C(=O)N1CC(C)CN1c1ncccc1Cl` (centres unmarked) [Example 369, (4-amino-1,7-dimethyl-1H-pyrazolo[4,3-c]quinolin-8-yl)(2-(3-chloropyridin-2-yl)-4-methylpyrazolidin-1-yl)methanone], the IC50 was 0.0039 µM in test [1], 0.084 µM in test [2] and 2.7 µM in test [3]. In test [2], the “Selectivity HCT 116-WT/ HCT116 MTAP KO” value was 32.12.

For the compound `[2H]C([2H])([2H])n1ncc2c(N)nc3cc(Cl)c(C(=O)N4CC(C)CN4c4ncccc4F)cc3c21` (centres unmarked) [Compound 508, (4-amino-7-chloro-1-(methyl-D3)-1H-pyrazolo[4,3-c]quinolin-8-yl)(2-(3-fluoropyridin-2-yl)-4-methylpyrazolidin-1-yl)meth anone], the half-inhibitory concentration (IC50) in test [1] stood at 0.0166 µM; in test [2], 0.114 µM; in test [3] it was 2.71 µM. Besides, in test [2], the “Selectivity HCT 116-WT/ HCT116 MTAP KO” value is on record as 23.78.

Regarding `Cc1cc2cc(C(=O)N(Cc3ccc(C(F)(F)F)cn3)N(C)c3c(F)cccc3F)ccc2nc1N` [Compound 116, 2-amino-N'-(2,6-difluorophenyl)-N',3-di methyl-N-((5-(trifluoromethyl)pyridin-2-yl)methyl)quinoline-6-carbohydrazide], the half-maximal inhibitory concentration (IC50) was 0.0047 µM in test [1], 0.078 µM in test [2] and 2.95 µM in test [3]. Also, the “Selectivity HCT 116-WT/ HCT116 MTAP KO” value in test [2] came out at 37.85.

Turning to `Cc1cc2nc(N)c3cnn(C)c3c2cc1C(=O)N1CC(C)CN1c1ccccc1Cl` (centres unmarked) [Example 382, (4-amino-1,7-dimethyl-1H-pyrazolo[4,3-c]quinolin-8-yl)(2-(2-chlorophenyl)-4-methylpyrazolidin-1-yl)methanone], the half-inhibitory concentration (IC50) in test [1] came out at 0.0048 µM; in test [2], 0.124 µM; in test [3] it was 1.54 µM. In addition, the “Selectivity HCT 116-WT/ HCT116 MTAP KO” value in test [2] came out at 12.40.

As to `Cc1cc2cc(C(=O)N(Cc3ccc(C(F)(F)F)cn3)N(C)c3nccc4occc34)ccc2nc1N` [Example 42, 2-amino-N'-(furo[3,2-c]pyridin-4-yl)-N', 3-dimethyl-N-((5-(trifluoromethyl)pyridin-2-yl)methyl)quinoline-6-carbohydrazide], the half-inhibitory concentration (IC50) in test [1] worked out at 0.003 µM; in test [2], 0.049 µM; in test [3], 2.65 µM. Also, the “Selectivity HCT 116-WT/ HCT116 MTAP KO” value in test [2] is 54.14.

On to `Cc1cc2nc(N)c3cnn(C)c3c2cc1C(=O)N1CC(C)CN1c1cccc(Cl)n1` (centres unmarked) [Example 403, (4-amino-1,7-dimethyl-1H-pyrazolo[4,3-c]quinolin-8-yl)(2-(6-chloropyridin-2-yl)-4-methylpyrazolidin-1-yl)methanone], for which the figures for the half-maximal inhibitory concentration (IC50) in test [1], in test [2] and in test [3] were 0.0038 µM, 0.014 µM and 0.277 µM, respectively. In test [2], the “Selectivity HCT 116-WT/ HCT116 MTAP KO” value is 19.79.

Consider `Cc1cc2nc(N)c3cnn(C)c3c2cc1C(=O)N1CC(C)CN1c1cccc(F)n1` (centres unmarked) [Example 360, (4-amino-1,7-dimethyl-1H-pyrazolo[4,3-c]quinolin-8-yl)(2-(6-fluoropyridin-2-yl)-4-methylpyrazolidin-1-yl)methanone], for which the IC50 in test [1] was determined as 0.0052 µM; in test [2] it was 0.023 µM; in test [3] it was 1.17 µM. Further, the “Selectivity HCT 116-WT/ HCT116 MTAP KO” value in test [2] is listed as 50.74.

The values are drawn from patent EP4745134A1 (Jiangsu Yahong Meditech Co., Ltd., priority 2023, dated 2025).
